Earlier results on one compound are cited in patent US8877698B2, “Method and composition for disinfecting hard surfaces” (priority 2001, dated 2014).

The test system of the series is Mycobacterium tuberculosis var. bovis and poliovirus.

For the compound `CCO` [ethanol], the “concentrations needed to kill resistant organisms” value was 70-90%.
